# Results: patent publication US20140357655A1, “SPIROINDOLINE DERIVATIVES AS GONADOTROPIN- RELEASING HORMONE RECEPTOR ANTAGONISTS” (Bayer Intellectual Property GmbH, priority 2012, published 2014)
# Target: T1, human GnRH receptor (Homo sapiens, UniProt P30968)
# T1 sequence (P30968 1-328): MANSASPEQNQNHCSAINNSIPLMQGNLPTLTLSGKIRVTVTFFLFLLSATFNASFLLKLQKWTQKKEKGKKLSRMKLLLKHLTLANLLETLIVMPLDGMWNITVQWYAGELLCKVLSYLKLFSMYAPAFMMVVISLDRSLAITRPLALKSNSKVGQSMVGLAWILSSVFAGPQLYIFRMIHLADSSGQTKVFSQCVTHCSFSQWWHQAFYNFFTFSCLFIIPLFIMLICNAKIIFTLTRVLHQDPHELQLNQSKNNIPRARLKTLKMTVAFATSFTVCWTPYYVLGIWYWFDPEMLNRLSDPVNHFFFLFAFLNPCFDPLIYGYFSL
# Test: IP-One HTRF assay with buserelin (at EC80) stimulation
# Type: cell-based
# Details: CHO cells stably expressing human GnRH receptor, read-out: Potency in IP-One HTRF assay, given as IC50
# From the text: 2.3. IP-One HTRF® Assay By using homogenous time-resolved fluorescence resonance energy transfer (HTRF), the generation of one component of the GnRH—R signalling cascade can be measured. After stimulation of CHO cells stably expressing human GnRH receptor (established by Prof. Thomas Gudermann, currently University of Marburg, Germany; supplied as frozen cell aliquots by Cell Culture Services, Hamburg, Germany) with the EC80 of the GnRH agonist buserelin, Gq protein-coupled receptor signalling cascade is activated resulting in PLC-dependent cleavage of PIP2 to Inositol-1,4,5-triphosphate (IP3) and Diacylglycerol. The second messenger IP3 is degraded intracellularly to myo-inositol. Inhibition of the final degradation step from Inositol-1-phosphate (IP1) to myo-inositol by addition of lithium chloride leads to accumulation of IP1 in the cells. In cell lysates, IP1 can be detected via an antibody-based HTRF detection technology, where IP1 can displace the FRET acceptor IP1-d2 from binding by Terbium-labelled anti-IP1 antibody as donor resulting in a signal decrease. Compounds were tested for their capability of inhibiting GnRH—R activation by buserelin. For all IP-One HTRF® assays reagents of Cisbio Bioassays (IP-One Tb Jumbo kit, #62IPAPEJ; Cisbio Bioassays, Bagnols sur Cèze Cedex, France) were used.
# For the assay, frozen cell aliquots were thawed and a cell suspension (3.33×10^6 cells/mL) containing IP1-d2 (dilution 1:40) was prepared and incubated at 37° C. After 1 h 3 μl of the cell suspension were added to 50 nl of a 100-fold concentrated solution of the test compound in DMSO pre-dispensed in a well of a white low-volume 384-well microtiter plate (Greiner Bio-One, Frickenhausen, Germany). […] Plates were incubated for 1 h at 37° C. and 5% carbon dioxide before the cells were lysed by adding 3 μl Terbium-labelled anti-IP1 antibody (1:40) diluted in Conjugate & Lysis buffer as supplied with the kit. After an incubation for 1 h at 22° C. to enable complete cell lysis and antibody binding to free IP1 or IP1-d2, plates were measured in an HTRF reader, e.g. a RUBYstar, PHERAstar (both BMG Labtechnologies, Offenburg, Germany) or a Viewlux (PerkinElmer LAS, Rodgau-Jügesheim, Germany).
# From the fluorescence emissions at 665 nm (FRET) and at 620 nm (background signal of Terbium-antibody), the ratio (emission at 665 nm divided by emission at 620 nm) was calculated and the data were normalized (reaction without test compound=0% inhibition; all other assay components except agonist=100% inhibition). On the same microtiter plate, compounds were tested at 10 different concentrations in the range of 20 μM to 1 nM (20 μM, 6.7 μM, 2.2 μM, 0.74 μM, 0.25 μM, 82 nM, 27 nM, 9.2 nM, 3.1 nM and 1 nM; dilution series prepared before the assay at the level of the 100-fold conc. stock solutions by serial 1:3 dilutions in 100% DMSO) in duplicate values for each concentration. By using an in-house software, the IC50 values were calculated by a 4 parameter fit.
row,SMILES,IC50 [nM]
1,"CC1N(S(=O)(=O)c2ccc(F)cc2)c2ccc(C(=O)NCc3ncccc3Cl)cc2C12CCOCC2 (racemic) [Example 1, N-[(3-Chloropyridin-2-yl)methyl]-1-[(4-fluorophenyl)sulfonyl]-2-methyl-1,2,2′,3′,5′,6′-hexahydrospiro[indole-3,4′-pyran]-5-carboxamide]",584
2,"O=C(NCc1ccccc1Cl)c1ccc2c(c1)C1(CCSCC1)C(C1CC1)N2S(=O)(=O)c1ccc(F)cc1 (racemic) [Example 12, N-(2-Chlorobenzyl)-2-cyclopropyl-1-[(4-fluorophenyl)sulfonyl]-1,2,2′,3′,5′,6′-hexahydrospiro[indole-3,4′-thiopyran]-5-carboxamide]",186
3,"O=C(NCc1ncccc1Cl)c1ccc2c(c1)C1(CCS(=O)(=O)CC1)C(C1CC1)N2S(=O)(=O)c1ccc(F)cc1 (racemic) [Example 14, N-[(3-Chloropyridin-2-yl)methyl]-2-cyclopropyl-1-[(4-fluorophenyl)sulfonyl]-1,2,2′,3′,5′,6′-hexahydrospiro[indole-3,4′-thiopyran]-5-carboxamide 1′,1′-dioxide]",245
4,"CC1N(S(=O)(=O)c2ccc(F)cc2)c2ccc(C(=O)NCc3ncccc3Cl)cc2C12CCOCC2 (single isomer, unassigned) [Example 1.1, N-[(3-Chloropyridin-2-yl)methyl]-1-[(4-fluorophenyl)sulfonyl]-2-methyl-1,2,2′,3′,5′,6′-hexahydrospiro[indole-3,4′-pyran]-5-carboxamide]",146
5,"CC1N(S(=O)(=O)c2ccc(F)cc2)c2ccc(C(=O)NCc3ncccc3Cl)cc2C12CCOCC2 (single isomer, unassigned) [Example 1.2, N-[(3-Chloropyridin-2-yl)methyl]-1-[(4-fluorophenyl)sulfonyl]-2-methyl-1,2,2′,3′,5′,6′-hexahydrospiro[indole-3,4′-pyran]-5-carboxamide]",19500
6,"CC1N(S(=O)(=O)c2ccc(F)cc2)c2ccc(C(=O)NCc3ccccc3Cl)cc2C12CCOCC2 (single isomer, unassigned) [Example 2.1, N-(2-chlorobenzyl)-1-[(4-fluorophenyl)sulfonyl]-2-methyl-1,2,2′,3′,5′,6′-hexahydrospiro[indole-3,4′-pyran]-5-carboxamide]",9320
7,"CC1N(S(=O)(=O)c2ccc(F)cc2)c2ccc(C(=O)NCc3ccccc3Cl)cc2C12CCOCC2 (single isomer, unassigned) [Example 2.2, N-(2-chlorobenzyl)-1-[(4-fluorophenyl)sulfonyl]-2-methyl-1,2,2′,3′,5′,6′-hexahydrospiro[indole-3,4′-pyran]-5-carboxamide]",83
8,"CC1N(S(=O)(=O)c2ccc(F)cc2)c2ccc(C(=O)NCc3ncccc3C(F)(F)F)cc2C12CCOCC2 (single isomer, unassigned) [Example 3.1, 1-[(4-fluorophenyl)sulfonyl]-2-methyl-N-{[3-(trifluoromethyl)pyridin-2-yl]methyl}-1,2,2′,3′,5′,6′-hexahydrospiro[indole-3,4′-pyran]-5-carboxamide]",226
9,"CC1N(S(=O)(=O)c2ccc(F)cc2)c2ccc(C(=O)NCc3ncccc3C(F)(F)F)cc2C12CCOCC2 (single isomer, unassigned) [Example 3.2, 1-[(4-fluorophenyl)sulfonyl]-2-methyl-N-{[3-(trifluoromethyl)pyridin-2-yl]methyl}-1,2,2′,3′,5′,6′-hexahydrospiro[indole-3,4′-pyran]-5-carboxamide]",> 20000
10,"O=C(NCc1ccccc1Cl)c1ccc2c(c1)C1(CCSCC1)C(C1CC1)N2S(=O)(=O)c1ccc(F)cc1 (single isomer, unassigned) [Example 12.1, N-(2-Chlorobenzyl)-2-cyclopropyl-1-[(4-fluorophenyl)sulfonyl]-1,2,2′,3′,5′,6′-hexahydrospiro[indole-3,4′-thiopyran]-5-carboxamide]",178
11,"O=C(NCc1ccccc1Cl)c1ccc2c(c1)C1(CCSCC1)C(C1CC1)N2S(=O)(=O)c1ccc(F)cc1 (single isomer, unassigned) [Example 12.2, N-(2-Chlorobenzyl)-2-cyclopropyl-1-[(4-fluorophenyl)sulfonyl]-1,2,2′,3′,5′,6′-hexahydrospiro[indole-3,4′-thiopyran]-5-carboxamide]",3730
12,"O=C(NCc1ccccc1Cl)c1ccc2c(c1)C1(CC[S+]([O-])CC1)C(C1CC1)N2S(=O)(=O)c1ccc(F)cc1 (single isomer, unassigned) [Example 13.2, N-(2-Chlorobenzyl)-2-cyclopropyl-1-[(4-fluorophenyl)sulfonyl]-1,2,2′,3′,5′,6′-hexahydrospiro[indole-3,4′-thiopyran]-5-carboxamide 1′-oxide]",383
13,"O=C(NCc1ncccc1Cl)c1ccc2c(c1)C1(CCS(=O)(=O)CC1)C(C1CC1)N2S(=O)(=O)c1ccc(F)cc1 (single isomer, unassigned) [Example 14.2, N-[(3-Chloropyridin-2-yl)methyl]-2-cyclopropyl-1-[(4-fluorophenyl)sulfonyl]-1,2,2′,3′,5′,6′-hexahydrospiro[indole-3,4′-thiopyran]-5-carboxamide 1′,1′-dioxide]",5390
14,"O=C(NCc1ncccc1C(F)(F)F)c1ccc2c(c1)C1(CCS(=O)(=O)CC1)C(C1CC1)N2S(=O)(=O)c1ccc(F)cc1 (single isomer, unassigned) [Example 15.1, 2-cyclopropyl-1-[(4-fluorophenyl)sulfonyl]-N-{[3-(trifluoromethyl)pyridin-2-yl]methyl}-1,2,2′,3′,5′,6′-hexahydrospiro[indole-3,4′-thiopyran]-5-carboxamide 1′,1′-dioxide]",> 20000
15,"O=C(NCc1ncccc1C(F)(F)F)c1ccc2c(c1)C1(CCS(=O)(=O)CC1)C(C1CC1)N2S(=O)(=O)c1ccc(F)cc1 (single isomer, unassigned) [Example 15.2, 2-cyclopropyl-1-[(4-fluorophenyl)sulfonyl]-N-{[3-(trifluoromethyl)pyridin-2-yl]methyl}-1,2,2′,3′,5′,6′-hexahydrospiro[indole-3,4′-thiopyran]-5-carboxamide 1′,1′-dioxide]",69
16,"O=C(NCc1ccc(F)cc1Cl)c1ccc2c(c1)C1(CCS(=O)(=O)CC1)C(C1CC1)N2S(=O)(=O)c1ccc(F)cc1 (single isomer, unassigned) [Example 16.1, N-(2-chloro-4-fluorobenzyl)-2-cyclopropyl-1-[(4-fluorophenyl)sulfonyl]-1,2,2′,3′,5′,6′-hexahydrospiro[indole-3,4′-thiopyran]-5-carboxamide 1′,1′-dioxide]",62
17,"O=C(NCc1ccc(F)cc1Cl)c1ccc2c(c1)C1(CCS(=O)(=O)CC1)C(C1CC1)N2S(=O)(=O)c1ccc(F)cc1 (single isomer, unassigned) [Example 16.2, N-(2-chloro-4-fluorobenzyl)-2-cyclopropyl-1-[(4-fluorophenyl)sulfonyl]-1,2,2′,3′,5′,6′-hexahydrospiro[indole-3,4′-thiopyran]-5-carboxamide 1′,1′-dioxide]",6840
18,"O=C(NCc1ncc(F)cc1Cl)c1ccc2c(c1)C1(CCS(=O)(=O)CC1)C(C1CC1)N2S(=O)(=O)c1ccc(F)cc1 (single isomer, unassigned) [Example 17.1, N-[(3-chloro-5-fluoropyridin-2-yl)methyl]-2-cyclopropyl-1-[(4-fluorophenyl)sulfonyl]-1,2,2′,3′,5′,6′-hexahydrospiro[indole-3,4′-thiopyran]-5-carboxamide 1′,1′-dioxide]",139
